Reference: article PMC4627284, “High-throughput simultaneous screen and counterscreen identifies homoharringtonine as synthetic lethal with von Hippel-Lindau loss in renal cell carcinoma” (Oncotarget, 2015)

Experiments:
[1] = test system: 786-O VHL^mCh (VHL-reconstituted) cells; assay: Western blot for Caspase 9 and Bcl-xL; assay type: cell-based, human; conditions: 24 hours
Experimental: (§1) Figure 2 Homoharringtonine (HHT) preferentially induces cell death in VHL-deficient 786-O cells A. 786-O cells with VHL mutation (green) or with VHL-reconstituted (red) were treated with different concentrations of HHT (0, 25, 50, or 100 nM) for 0, 6, 12, 24, 36, or 48 hours, and cell death was measured by trypan blue exclusion assay (n = 3 for each concentration and time point; *p < 0.05, **p < 0.001, ***p < 0.0001 between 786-O EV cells and 786-O with VHL reconstituted at the same concentration and time point). B. […] Blots were probed for Bcl-xL and Caspase 9, and α-Tubulin as loading control. Arrow indicates the cleaved Caspase 9 product.

[2] = test system: 786-O EV^GFP (VHL-deficient) cells; assay: Western blot for Caspase 9 and Bcl-xL; assay type: cell-based, human
Experimental: as §1

[3] = test system: VHL-deficient 786-O cells; assay: High-throughput simultaneous screen and counterscreen, 1:1 mix of EV^GFP and VHL^mCh 786-O cells, fluorescence imaging; assay type: cell-based, human; conditions: library at 5 μM, 48 hours, in the presence of 2 nM rapamycin
Source text: To identify small molecule compounds synthetic lethal with VHL, we carried out an unbiased cell-based screen of a chemical library of ~12,800 compounds using 786-O cells, an extensively studied cell line derived from a VHL-deficient primary human ccRCC [26]. 786-O cells were stably transfected with either an empty vector (EV) control or reconstituted with an HA-tagged VHL cDNA. […] To distinguish between the two otherwise isogenic cell lines, we transduced the VHL-deficient 786-O cells with a histone H2B-GFP reporter and the VHL-reconstituted cells with an H2B-mCherry reporter. The histone proteins drive the fluorochrome to nuclei facilitating cell identification and segmentation algorithms (Figure 1A and 1B). […]
Figure 1 Screening strategy to identify compounds that are synthetic lethal with VHL A. Schematic diagram of a ~12,800 chemical library synthetic lethal screen. […] Fluorescence imaging (using the BD Pathway 855 imager) was used to identify compounds preferentially depleting VHL-deficient/GFP-positive cells after cells were segmented. B. Left panel: Representative image of fluorescence signal from Hoescht-labeled 786-O cells. Right panel: overlay of GFP fluorescence signal (green; from 786-O EV^GFP cells) and mCherry fluorescence nuclear signal (red; VHL^mCh cells). […] Toxicity was determined as ≤100 VHL^mCh cells per field. […]

[4] = test system: XP26 tumorgraft line; assay: ccRCC tumorgraft model, line XP26; assay type: in vivo, NOD/SCID mice; conditions: 0.7 mg/kg by gavage twice daily
Experimental: We selected 6 independently-derived ccRCC tumorgraft lines that were confirmed to have VHL mutation. The mice (3-5 mice per tumorgraft line) were treated with either HHT (0.7 mg/kg), vehicle (as a negative control), or rapamycin (0.5 mg/kg; as a positive control). In total, 65 tumorgraft bearing mice were evaluated for these experiments in time courses lasting ~28 days, with tumor growth measured every 3 or 4 days.
Figure 3 HHT inhibits tumor growth in a ccRCC tumorgraft model A-F, Tumorgraft lines were treated with vehicle control, HHT (0.7 mg/kg), rapamycin (0.5 mg/kg), (or the combination, where indicated) and tumor growth was measured on the indicated days. Day 0 represents the first day of treatment.
Tumorgrafts were generated and propagated as described previously, with tumor samples implanted subcutaneously into the flank of the mouse for drug trials. Briefly, 4- to 8-week-old NOD/SCID mice were anesthetized with isoflurane and implanted subcutaneously with 64 mm^3 tumor fragments (cohorts 2-20). Once tumors reached an average of at least ~250 mm^3, drug treatment was begun. […] Tumor size (volume) was measured twice weekly and was obtained by multiplying tumor length, width, and depth using calipers. To assess toxicity, mouse weight was monitored once weekly.

## COC(=O)C[C@](O)(CCCC(C)(C)O)C(=O)O[C@@H]1C(OC)=C[C@]23CCCN2CCc2cc4c(cc2[C@H]13)OCO4 [HHT, homoharringtonine]
[1]
  Bcl-xL expression: upregulated
[2]; 50 nM and 100 nM, within 12 hours
  caspase 9 cleavage: observed
[2]; 24 hours
  Bcl-xL expression: not upregulated
[3]
  synthetic lethality with VHL in the screen: synthetic lethal compound effective against VHL-deficient ccRCC cells
[4]
  tumor weight smaller than vehicle-treated: 56%
[4]; ~28 days
  tumor growth inhibition (tumor volume) vs vehicle: 63.7%
